Results from patent US7692030B2, “Conjugates of artemisinin-related endoperoxides and hydrazone derivatives for the treatment of cancer” (University of Washington, priority 2006, dated 2010).

Legend:
[1] = tested on: approximately 60 human tumor cell lines; test: NCI DTP human tumor cell line screen, whole panel statistics; format: cell-based; conditions: for inhibitory activities against cancer cells: DTP human tumor cell line screen, non-small cell lung, colon, breast, ovarian, leukemia, renal, melanoma, prostate, CNS cancer; for mean growth percent: mean over all cell lines tested; for mean growth percent / delta value (growth percent) / range (growth percent): 10 μM, 48 h; for delta value (growth percent) / range (growth percent): over all cell lines tested
Procedure: (§1) Representative compounds of the invention, prepared as described in EXAMPLES 1-6, were submitted to the Developmental Therapeutics Program of the United States National Cancer Institute (NCl) to screen for anti-cancer activity. The anti-cancer activities of the six compounds were tested against approximately 60 human tumor cell lines representing leukemia, melanoma, and cancers of the lung, colon, breast, ovary, kidney, prostate, and brain. The following screening methodology was provided by the NCl. […] For experimental screens, cells were inoculated into 96 well microtiter plates in 100 μL at plating densities ranging from 5,000 to 40,000 cells/well depending on the doubling time of individual cell lines. After cell inoculation, the microtiter plates were incubated at 37° C., 5% carbon dioxide, 95% air and 100% relative humidity for 24 hours prior to addition of the compounds. After 24 hours of incubation, two plates of each cell line were fixed in situ with trichloroacetic acid (TCA) to represent a measurement of the cell population for each cell line at the time of compound addition (Tz). The compounds were solubilized in dimethyl sulfoxide at 400-fold the desired final maximum test concentration and stored frozen prior to use. At the time of drug addition, frozen aliquots of the compounds thawed and diluted with complete medium containing 50 μg/ml gentamicin. Aliquots of 100 μl of these different compound dilutions were added to the appropriate microtiter wells already containing 100 μl of medium, resulting in the required final compound concentration of 10 μM. Following compound addition, the plates were incubated for an additional 48 h at 37° C., 5% carbon dioxide, 95% air, and 100% relative humidity. For adherent cells, the assay was terminated by the addition of cold TCA. Cells were fixed in situ by the gentle addition of 50 μl of cold 50% (w/v) TCA (final concentration, 10% TCA) and incubated for 60 minutes at 4° C. The supernatant was discarded, and the plates were washed five times with tap water and air dried. Sulforhodamine B (SRB) solution (100 μl) at 0.4% (w/v) in 1% acetic acid was added to each well, and plates were incubated for 10 minutes at room temperature. After staining, unbound dye was removed by washing five times with 1% acetic acid and the plates were air dried. Bound stain was subsequently solubilized with 10 mM trizma base, and the absorbance was read on an automated plate reader at a wavelength of 515 nm. For suspension cells, the methodology was the same except that the assay was terminated by fixing settled cells at the bottom of the wells by gently adding 50 μl of 80% TCA (final concentration, 16% TCA). Using the three absorbance measurements [time zero, (Tz), control growth, (C), and test growth in the presence of compound (Ti)], the percentage growth was calculated at each of the compound concentrations levels. Percentage growth inhibition was calculated with the following algorithms: [(Ti−Tz)/(C−Tz)]×100 for concentrations for which Ti>/=Tz [(Ti−Tz)/Tz]×100 for concentrations for which Ti<Tz The results of the NCl in vitro anticancer screening with six compounds against various human tumor cell lines are presented below in Tables 2-7. […] The growth percent mean, delta, and range for each compound are given below.

[2] = tested on: UACC-257; test: NCI DTP human tumor cell line screen (SRB); format: cell-based; conditions: Melanoma, 10 μM, 48 h
Procedure: as §1

[3] = tested on: OVCAR-5; test: NCI DTP human tumor cell line screen (SRB); format: cell-based; conditions: Ovarian Cancer, 10 μM, 48 h
Procedure: as §1

[4] = tested on: OVCAR-3; test: NCI DTP human tumor cell line screen (SRB); format: cell-based; conditions: Ovarian Cancer, 10 μM, 48 h
Procedure: as §1

[5] = tested on: HS 578T; test: NCI DTP human tumor cell line screen (SRB); format: cell-based; conditions: Breast Cancer, 10 μM, 48 h
Procedure: as §1

[6] = tested on: SK-OV-3; test: NCI DTP human tumor cell line screen (SRB); format: cell-based; conditions: Ovarian Cancer, 10 μM, 48 h
Procedure: as §1

[7] = tested on: SNB-75; test: NCI DTP human tumor cell line screen (SRB); format: cell-based; conditions: CNS Cancer, 10 μM, 48 h
Procedure: as §1

[8] = tested on: CAKI-1; test: NCI DTP human tumor cell line screen (SRB); format: cell-based; conditions: Renal Cancer, 10 μM, 48 h
Procedure: as §1

[9] = tested on: M14; test: NCI DTP human tumor cell line screen (SRB); format: cell-based; conditions: Melanoma, 10 μM, 48 h
Procedure: as §1

[10] = tested on: NCI-H522; test: NCI DTP human tumor cell line screen (SRB); format: cell-based; conditions: Non-Small Cell Lung Cancer, 10 μM, 48 h
Procedure: as §1

[11] = tested on: SW-620; test: NCI DTP human tumor cell line screen (SRB); format: cell-based; conditions: Colon Cancer, 10 μM, 48 h
Procedure: as §1

[12] = tested on: SK-MEL-5; test: NCI DTP human tumor cell line screen (SRB); format: cell-based; conditions: Melanoma, 10 μM, 48 h
Procedure: as §1

[13] = tested on: NCI/ADR-RES; test: NCI DTP human tumor cell line screen (SRB); format: cell-based; conditions: Breast Cancer, 10 μM, 48 h
Procedure: as §1

[14] = tested on: 786-0; test: NCI DTP human tumor cell line screen (SRB); format: cell-based; conditions: Renal Cancer, 10 μM, 48 h
Procedure: as §1

[15] = tested on: TK-10; test: NCI DTP human tumor cell line screen (SRB); format: cell-based; conditions: Renal Cancer, 10 μM, 48 h
Procedure: as §1

[16] = tested on: UACC-62; test: NCI DTP human tumor cell line screen (SRB); format: cell-based; conditions: Melanoma, 10 μM, 48 h
Procedure: as §1

[17] = tested on: HCC-2998; test: NCI DTP human tumor cell line screen (SRB); format: cell-based; conditions: Colon Cancer, 10 μM, 48 h
Procedure: as §1

[18] = tested on: SN12C; test: NCI DTP human tumor cell line screen (SRB); format: cell-based; conditions: Renal Cancer, 10 μM, 48 h
Procedure: as §1

[19] = tested on: SK-MEL-28; test: NCI DTP human tumor cell line screen (SRB); format: cell-based; conditions: Melanoma, 10 μM, 48 h
Procedure: as §1

[20] = tested on: BT-549; test: NCI DTP human tumor cell line screen (SRB); format: cell-based; conditions: Breast Cancer, 10 μM, 48 h
Procedure: as §1

[21] = tested on: HL-60(TB); format: cell-based, human; conditions: Leukemia, 10 μM, 48 h
Procedure: The human tumor cell lines of the cancer screening panel were grown in RPMI 1640 medium containing 5% fetal bovine serum and 2 mM L-glutamine. For experimental screens, cells were inoculated into 96 well microtiter plates in 100 μL at plating densities ranging from 5,000 to 40,000 cells/well depending on the doubling time of individual cell lines. After cell inoculation, the microtiter plates were incubated at 37° C., 5% carbon dioxide, 95% air and 100% relative humidity for 24 hours prior to addition of the compounds.

[22] = tested on: MALME-3M; test: NCI DTP human tumor cell line screen (SRB); format: cell-based; conditions: Melanoma, 10 μM, 48 h
Procedure: as §1

[23] = tested on: NCI-H322M; test: NCI DTP human tumor cell line screen (SRB); format: cell-based; conditions: Non-Small Cell Lung Cancer, 10 μM, 48 h
Procedure: as §1

[24] = tested on: KM12; test: NCI DTP human tumor cell line screen (SRB); format: cell-based; conditions: Colon Cancer, 10 μM, 48 h
Procedure: as §1

Row | SMILES | mean growth percent [1] | delta value (growth percent) [1] | range (growth percent) [1] | Growth Percent [2] | Growth Percent [3] | Growth Percent [4] | Growth Percent [5] | Growth Percent [6] | Growth Percent [7] | Growth Percent [8] | Growth Percent [9] | Growth Percent [11] | Growth Percent [12] | Growth Percent [13] | Growth Percent [14] | Growth Percent [15] | Growth Percent [16] | Growth Percent [17] | Growth Percent [18] | Growth Percent [19] | other results
1 | CC1CCC2C(C)C(OCc3ccc(C(=O)NN=Cc4ccccc4O)o3)OC3OC4(C)CCC1C32OO4 (stereo not drawn) [ART-Furan-Sal, N′-(2-hydroxybenzylidene)-5-(dihydroxyartemisinin-methyl)-furan-2-carbohydrazide] | 6.1% | 54.64 | 89.31 | 9.72% | 28.70% | 30.23% | 40.07% | 14.53% | −17.31% | 17.44% | −48.54% | 13.95% | −46.62% | 11.14% | −22.22% | 40.77% | −5.97% | 5.37% | 27.18% | 16.46% | inhibitory activities against cancer cells [1]: inhibitory activities against several types of cancer cells; mean growth percent ([1]; summary text): 6.1%; Growth Percent [10]: −10.76%; Growth Percent [20]: 22.47%; Growth Percent [21]: −43.79%
2 | CC1CCC2C(C)C(OCCn3cc(C(=O)NN=Cc4ccccc4O)nn3)OC3OC4(C)CCC1C32OO4 (stereo not drawn) [ART-Triazole-Sal, N′-(2-hydroxybenzylidene)-1-(dihydroxyartemisinin-ethyl)-1H-1,2,3-triazole-4-carbohydrazide] | 22.31% | 53.47 | 83.7 | 19.39% | 41.28% | 50.36% | 48.29% | 32.87% | −8.40% | 40.15% | 3.07% | 31.03% | 12.45% | 15.88% | 1.80% | 38.15% | 10.70% | 25.98% | 45.26% | 27.59% | inhibitory activities against cancer cells [1]: inhibitory activities against several types of cancer cells; mean growth percent ([1]; summary text): 22.31%; Growth Percent [22]: 42.33%; Growth Percent [23]: 27.06%; Growth Percent [24]: 29.83%; Growth Percent [20]: 40.56%; Growth Percent [21]: −31.16%
3 | CC1CCC2C(C)C(OCc3ccc(C(=O)NN=Cc4ccccc4O)nc3)OC3OC4(C)CCC1C32OO4 (stereo not drawn) [ART-Pyr-Sal, N′-(2-hydroxybenzylidene)-5-(dihydroxyartemisinin-methyl)-2-pyridine carbohydrazide] | 12.83% | 42.97 | 85.3 | 6.22% | 55.16% | 35.18% | 19.38% | 11.40% | −6.97% | 18.48% | −9.91% | 26.43% | −18.98% | 6.72% | −17.58% | 31.03% | 7.61% | 4.91% | 22.81% | 29.92% | inhibitory activities against cancer cells [1]: inhibitory activities against several types of cancer cells; Growth Percent [22]: 8.61%; Growth Percent [10]: 10.19%; Growth Percent [23]: 31.89%; Growth Percent [24]: 29.31%; Growth Percent [20]: 15.65%; Growth Percent [21]: 5.22%
4 | CC1CCC2C(C)C(OCc3ccc(C(=O)NN=Cc4ccccc4)cc3)OC3OC4(C)CCC1C32OO4 (stereo not drawn) [ART-Phe-Bz, N′-(benzylidene)-4-(dihydroxyartemisinin-methyl)-phenyl carbohydrazide] | 17.28% | 66.68 | 102.60 | 25.96% | 28.19% | 11.56% | 34.12% | 53.03% | 0.39% | 5.53% | 34.29% | 19.48% | 2.01% | 19.93% | 26.79% | 19.78% | 24.51% | 22.05% | 23.38% | 45.74% | Growth Percent [22]: 32.27%; Growth Percent [10]: −9.33%; Growth Percent [23]: 53.20%; Growth Percent [24]: 10.19%; Growth Percent [20]: 14.60%; Growth Percent [21]: −49.40%
5 | CC1CCC2C(C)C(OCc3ccc(C(=O)NN=Cc4ccccc4O)cc3)OC3OC4(C)CCC1C32OO4 (stereo not drawn) [ART-Phe-Sal, N′-(2-hydroxybenzylidene)-4-(dihydroxyartemisinin-methyl)-phenyl carbohydrazide] | 10.55% | 67.26 | 112.98 | 22.90% | 49.55% | 29.79% | 29.71% | 17.00% | −16.75% | 11.04% | −37.45% | 30.24% | −56.71% | 21.55% | −12.09% | 20.96% | −17.63% | 37.90% | 25.25% | 22.75% | inhibitory activities against cancer cells [1]: inhibitory activities against several types of cancer cells; Growth Percent [22]: 16.70%; Growth Percent [10]: 5.74%; Growth Percent [23]: 23.76%; Growth Percent [24]: 23.72%; Growth Percent [20]: 25.29%; Growth Percent [21]: −54.70%
